Measured values as given in ChEMBL document CHEMBL1201862, “PubChem BioAssay data set” (2004).
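All cell lines were grown in 96-well plates and treated with compound for 48 hours. Here, GI50 denotes the concentration required for 50% inhibition of growth.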 Calls of active or inactive are those of the source. Rule as the data show it: active = GI50 up to about 1.1 µM and inactive = higher.

Experiments:
Experiment in all cases: NCI anticancer screen, dose series, 48 h
[1] = system: SF-295
[2] = system: HCC 2998
[3] = system: SK-MEL-28
[4] = system: TK-10
[5] = system: ACHN
[6] = system: IGROV-1
[7] = system: OVCAR-3
[8] = system: SW-620
[9] = system: KM12
[10] = system: COLO 205
[11] = system: T47D
[12] = system: DU-145
[13] = system: MDA-N
[14] = system: NCI/ADR-RES
[15] = system: EKVX
[16] = system: 786-0
[17] = system: UO-31
[18] = system: A498
[19] = system: OVCAR-4

Structure (SMILES) | GI50 [1] | GI50 [2] | GI50 [3] | GI50 [4] | GI50 [5] | GI50 [6] | GI50 [7] | GI50 [8] | GI50 [9] | GI50 [10] | GI50 [11] | GI50 [12] | GI50 [13] | GI50 [14] | GI50 [15] | GI50 [16] | GI50 [17] | GI50 [18] | GI50 [19]
O=C1c2cc([N+](=O)[O-])sc2C(=O)c2c([N+](=O)[O-])csc21 | 0.968 µM (active) | 0.782 µM (active) | 0.713 µM (active) | 1.63 µM (inactive) | 0.324 µM (active) | 0.4 µM (active) | 0.122 µM (active) | 0.31 µM (active) | 1.24 µM (inactive) | 0.925 µM (active) | 0.69 µM (active) | 1.7 µM (inactive) | 0.189 µM (active) | 1.48 µM (inactive) | 1.48 µM (inactive) | 0.483 µM (active) | 1.87 µM (inactive) | 1.92 µM (inactive) | 0.64 µM (active)
CC(CO)C1=CC(C#CCOCc2ccccc2)N(C(=O)Oc2ccccc2)c2ccccc21 (configuration not stated) | 7.24 µM (inactive) | 25.5 µM (inactive) | 54.5 µM (inactive) | 48.1 µM (inactive) | 6.9 µM (inactive) | 28.2 µM (inactive) | 9.35 µM (inactive) | 45.5 µM (inactive) | 14.9 µM (inactive) | 15.1 µM (inactive) | 3.76 µM (inactive) | 57.5 µM (inactive) | 21.3 µM (inactive) | 8.89 µM (inactive) | 10.3 µM (inactive) | 28 µM (inactive) | 26.4 µM (inactive) | 4.59 µM (inactive) | 3.48 µM (inactive)
C=CCc1cc(C=C(C#N)C#N)cc(OC)c1O | > 100 µM (inactive) | > 10 µM (inactive) | > 100 µM (inactive) | > 100 µM (inactive) | > 100 µM (inactive) | > 100 µM (inactive) | 35.2 µM (inactive) | 81.7 µM (inactive) | > 100 µM (inactive) | 52.6 µM (inactive) | 38.9 µM (inactive) | > 100 µM (inactive) | > 100 µM (inactive) | > 100 µM (inactive) | > 100 µM (inactive) | > 100 µM (inactive) | > 100 µM (inactive) | > 100 µM (inactive) | > 100 µM (inactive)
CN(Cc1cnc2nc(N)nc(N)c2n1)c1ccc(C(=O)NCCS(=O)(=O)O)cc1 | > 100 µM (inactive) | > 100 µM (inactive) | > 100 µM (inactive) | > 100 µM (inactive) | > 100 µM (inactive) | > 100 µM (inactive) | > 100 µM (inactive) | > 100 µM (inactive) | > 100 µM (inactive) | > 100 µM (inactive) | > 100 µM (inactive) | > 100 µM (inactive) | > 100 µM (inactive) | > 100 µM (inactive) | > 100 µM (inactive) | > 100 µM (inactive) | > 100 µM (inactive) | > 100 µM (inactive) | > 100 µM (inactive)
NCC1OC(OC2C(N)CC(N)C(O)C2OC2OC(CO)C(O)C2O)C(N)C(O)C1O (configuration not stated) | > 100 µM (inactive) | > 50 µM (inactive) | > 100 µM (inactive) | > 50 µM (inactive) | > 50 µM (inactive) | > 50 µM (inactive) | > 100 µM (inactive) | > 100 µM (inactive) | > 50 µM (inactive) | – | > 50 µM (inactive) | > 100 µM (inactive) | > 50 µM (inactive) | > 100 µM (inactive) | > 100 µM (inactive) | > 50 µM (inactive) | > 100 µM (inactive) | > 50 µM (inactive) | > 100 µM (inactive)
N/C(=N\N/C=C1\C=Nc2cc(C(F)(F)F)ccc2C1=O)NO | > 10 µM (inactive) | > 10 µM (inactive) | > 10 µM (inactive) | > 10 µM (inactive) | > 10 µM (inactive) | > 10 µM (inactive) | > 10 µM (inactive) | > 10 µM (inactive) | 0.001 µM (active) | > 10 µM (inactive) | > 10 µM (inactive) | > 10 µM (inactive) | > 10 µM (inactive) | > 10 µM (inactive) | > 10 µM (inactive) | > 10 µM (inactive) | > 10 µM (inactive) | > 10 µM (inactive) | > 10 µM (inactive)
COc1ccc(-c2cc(=O)c3c(O)c(OC)c(O)cc3o2)cc1O | 2.83 µM (inactive) | 6.12 µM (inactive) | 22.5 µM (inactive) | 68.2 µM (inactive) | 13.8 µM (inactive) | 4.62 µM (inactive) | 9.04 µM (inactive) | 3.13 µM (inactive) | 3.18 µM (inactive) | 20.6 µM (inactive) | 5.94 µM (inactive) | 7.64 µM (inactive) | 0.406 µM (active) | 2.69 µM (inactive) | 9.25 µM (inactive) | 4.95 µM (inactive) | 6.27 µM (inactive) | 4.9 µM (inactive) | 50.5 µM (inactive)
